The supplement of paper PMC10307832

Assays:
Assay in all cases: relative viability (nuclei count vs DMSO), 5 days (fraction); higher = more cells survive
[1] = compound: CN1CCN(CC1)C2=CC(=C(C=C2)NC3=NC(=C(S3)C(=O)C4=C(C=CC=C4Cl)Cl)N)OC [XMD14-99] + Nc1ncn([C@H]2C[C@H](O)[C@@H](CO)O2)c(=O)n1 [Decitabine] (partner 2 µM)
How it was run: (§1)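 Lung cancer cell lines were pin-tool dosed in 1536-well plates on the day after seeding, with either a lone drug or a fixed anchor-drug dose plus five library-drug doses (not always all listed) in √10 steps. Nuclei were counted on 4× images after 5 days. Relative viability is the ratio of treated-well to vehicle-well nuclei counts, with each value a median of duplicate plates.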

[2] = compound: N[C@@H]1CCCN(c2c(/C=C3\SC(=O)NC3=O)cccc2-c2ccccc2)C1 [AZD1208] + CS(=O)(=O)CCNCc1ccc(-c2ccc3ncnc(Nc4ccc(OCc5cccc(F)c5)c(Cl)c4)c3c2)o1 [Lapatinib] (partner 2 µM)
How it was run: as §1

[3] = compound: N[C@@H]1CCCN(c2c(/C=C3\SC(=O)NC3=O)cccc2-c2ccccc2)C1 [AZD1208] + Cc1nc(NC(=O)N2CCC[C@H]2C(N)=O)sc1-c1ccnc(C(C)(C)C(F)(F)F)c1 [Alpelisib] (partner 2 µM)
How it was run: as §1

[4] = compound: CN1CCN(CC1)C2=CC(=C(C=C2)NC3=NC(=C(S3)C(=O)C4=C(C=CC=C4Cl)Cl)N)OC [XMD14-99] + Cc1nc(NC(=O)N2CCC[C@H]2C(N)=O)sc1-c1ccnc(C(C)(C)C(F)(F)F)c1 [Alpelisib] (partner 2 µM)
How it was run: as §1

| Cell Line | relative viability ([1]; first compound 0.08 µM) | relative viability ([1]; first compound 0.8 µM) | relative viability ([1]; first compound 2.53 µM) | relative viability ([1]; first compound 8 µM) | relative viability ([2]; first compound 0.08 µM) | relative viability ([2]; first compound 0.253 µM) | relative viability ([2]; first compound 0.8 µM) | relative viability ([2]; first compound 2.53 µM) | relative viability ([2]; first compound 8 µM) | relative viability ([3]; first compound 0.08 µM) | relative viability ([3]; first compound 0.253 µM) | relative viability ([3]; first compound 0.8 µM) | relative viability ([3]; first compound 2.53 µM) | relative viability ([3]; first compound 8 µM) | relative viability ([4]; first compound 0.08 µM) | relative viability ([4]; first compound 0.8 µM) | relative viability ([4]; first compound 2.53 µM) | relative viability ([4]; first compound 8 µM) |
| --- | --- | --- | --- | --- | --- | --- | --- | --- | --- | --- | --- | --- | --- | --- | --- | --- | --- | --- |
| 201T | 0.852 | 0.833 | 0.833 | 0.741 | 1.03 | 0.992 | 1.04 | 1.08 | 0.913 | 1.04 | 0.948 | 0.919 | 1.04 | 0.976 | 0.998 | 1 | 0.841 | 0.952 |
| A549 | 0.284 | 0.271 | 0.203 | 0.229 | 0.899 | 0.921 | 0.859 | 0.828 | 0.721 | 0.676 | 0.622 | 0.48 | 0.687 | 0.448 | 0.749 | 0.759 | 0.641 | 0.576 |
| A-427 | 0.537 | 0.545 | 0.541 | 0.521 | 1.11 | 0.988 | 0.843 | 1.15 | 0.815 | 1.02 | 1.07 | 1.02 | 1.02 | 0.97 | 1.09 | 1.08 | 0.954 | 0.9 |
| ABC-1 | 1.1 | 1.05 | 0.679 | 0.935 | 1.14 | 0.904 | 1.05 | 1.09 | 1.06 | 1.14 | 0.727 | 0.769 | 0.903 | 0.935 | 1.03 | 0.985 | 0.927 | 0.747 |
| BEN | 0.853 | 0.701 | 0.707 | 0.558 | 0.677 | 0.449 | 0.524 | 0.568 | 0.437 | 0.876 | 1.1 | 0.704 | 0.673 | 0.507 | 0.94 | 0.936 | 0.854 | 0.801 |
| CAL-12T | – | – | – | – | 0.634 | 0.771 | 0.6 | 0.695 | 0.588 | 1.12 | 1.22 | 1.13 | 1.1 | 0.851 | 1.49 | 1.13 | 1.15 | 1.03 |
| COR-L23 | 0.467 | 0.428 | 0.41 | 0.382 | 0.991 | 1.18 | 0.942 | 1.02 | 0.916 | 0.735 | 0.64 | 0.715 | 0.721 | 0.657 | 0.768 | 0.749 | 0.515 | 0.301 |
| COR-L 105 | 0.718 | 0.651 | 0.606 | 0.604 | 0.366 | 0.334 | 0.299 | 0.29 | 0.36 | 1.06 | 0.94 | 0.763 | 1.06 | 0.807 | 0.851 | 0.849 | 0.823 | 0.806 |
| Calu-6 | – | – | – | – | 1.04 | 1.19 | 1.04 | 1.08 | 1.03 | 0.993 | 1.03 | 0.889 | 0.918 | 0.818 | 0.929 | 0.959 | 0.919 | 0.67 |
| ChaGo-K-1 | 0.52 | 0.531 | 0.5 | 0.481 | – | – | – | – | – | – | – | – | – | – | – | – | – | – |
| EBC-1 | – | – | – | – | 0.195 | 0.249 | 0.193 | 0.218 | 0.2 | 0.783 | 0.806 | 0.885 | 0.75 | 0.817 | 0.819 | 0.783 | 0.653 | 0.561 |
| EKVX | 0.274 | 0.322 | 0.316 | 0.239 | 0.194 | 0.191 | 0.194 | 0.168 | 0.176 | 0.866 | 0.936 | 0.775 | 0.802 | 0.71 | 0.767 | 0.985 | 0.876 | 0.696 |
| EMC-BAC-2 | 0.973 | 0.898 | 0.838 | 0.802 | 0.827 | 0.889 | 0.783 | 0.835 | 0.723 | 0.752 | 0.74 | 0.636 | 0.701 | 0.62 | 0.728 | 0.767 | 0.74 | 0.619 |
| EPLC-272H | 0.386 | 0.41 | 0.353 | 0.314 | 0.987 | 0.866 | 0.841 | 0.825 | 0.717 | 0.938 | 0.949 | 0.807 | 0.807 | 0.894 | 0.938 | 1.01 | 0.928 | 0.92 |
| H3255 | 0.584 | 0.674 | 0.546 | 0.513 | 0.258 | 0.231 | 0.225 | 0.219 | 0.22 | 0.662 | 0.702 | 0.639 | 0.567 | 0.615 | 0.605 | 0.636 | 0.629 | 0.506 |
| HARA | 0.565 | 0.505 | 0.537 | 0.403 | 0.727 | 0.61 | 0.686 | 0.737 | 0.594 | 0.747 | 0.794 | 0.671 | 0.754 | 0.747 | 0.872 | 0.784 | 0.734 | 0.481 |
| HCC-15 | 0.668 | 0.605 | 0.599 | 0.415 | 0.871 | 0.858 | 0.874 | 0.858 | 0.831 | 0.742 | 0.823 | 0.557 | 0.664 | 0.584 | 0.906 | 0.883 | 0.827 | 0.657 |
| HCC-44 | 1.01 | 0.902 | 0.898 | 0.911 | 1.01 | 0.987 | 1.06 | 0.999 | 0.947 | 0.722 | 0.854 | 0.744 | 0.695 | 0.626 | 0.825 | 0.788 | 0.821 | 0.797 |
| HCC-78 | 0.709 | 0.646 | 0.822 | 0.47 | 0.779 | 0.888 | 0.621 | 0.845 | 0.966 | 0.329 | 0.339 | 0.27 | 0.257 | 0.266 | 0.371 | 0.308 | 0.331 | 0.291 |
